14 molecules from patent US12145947B2, “Pyrimidine based modulators and uses thereof” (Quanta Therapeutics, Inc., priority 2022, dated 2024) can be followed below.

The structures appear in SMILES notation.

One assay has as its target T1, KRAS G12D/RAF1 (Homo sapiens, UniProt P01116, G12D).
T1 construct: His6-MBP (N, cleaved yes); made in house; host or cells: E. coli
Briefly: Protein-protein interaction (PPI) HTRF assay KRAS G12D/RAF1. In kind it is binding. The procedure, abridged:
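Biotinylated human KRAS (1-169; wt, G12D, G12V) or wt NRAS, GppNHp-loaded, pre-incubated 30 min RT with compound and streptavidin-d2, then His-RAF1 RBD (52-131) with anti-6His Tb cryptate added for 1 h RT. HTRF 665/615 ratio normalized to no compound (0%) and untagged RAF1 (100%); IC50.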
(Time-resolved FRET reads energy transfer from a long-lived donor to a nearby acceptor.)

In assay [1] the test system is GP2D cells (KRAS G12D), phospho-ERK. Briefly: pERK In Cell Western (ICW) assay, GP2D cells. As to conditions: Table 4, 3 hours. In kind it is cell-based. The procedure:
pERK ICW is a high throughput screening assay to evaluate the cellular potency of mutant KRAS small molecule inhibitors. KRAS mutant cell lines AGS and GP2D (KRAS^G12D) were purchased from ATCC and maintained respectively in RPMI and DMEM medium supplemented with 10% fetal bovine serum and Penicillin/Streptomycin.
Cells grown in exponential phase were trypsinized, resuspended in fresh media, and viable cells were counted using a cell counter with Trypan Blue (BioRad TC20). Cells were seeded into 384-well plate (Greiner 781091) at density of 5,000 cells/well for AGS and 10,000 cells/well for GP2D and allowed to grow overnight in a 37° C. CO2 incubator. The next day, compounds were dispensed into wells with a ½ log, 10-point serial dilution and top concentration of […] using Tecan D300e dispenser and incubated for 3 hours in a 37° C. CO2 incubator. Cells were then fixed with paraformaldehyde (Electron Microscopy Sciences, 15710, 4% final concentration) for 30 min, permeabilized with wash buffer (1×PBS+0.1% Triton X-100) for 30 min and blocked with Odyssey blocking buffer (Li—COR 927-70001) for 1 hour, all at room temperature (RT). Phospho-ERK antibody (CST 4370L) was diluted 1:500 in Odyssey blocking+0.2% Tween 20 and incubated with cells overnight at 4° C. The next day, plates were washed 5× with wash buffer, incubated with IRDye 800 CW, Goat anti-Rabbit secondary antibody (Li—COR 926-32211, 1:500) and DRAQ5 (CST 4084L, 1:5,000) diluted in Odyssey blocking+0.2% Tween 20 for 1 hour, washed 5×, and imaged on an Odyssey CLx imaging system.
For data analysis, signal intensities from 800 (phosphor-ERK) and 700 (DRAQ5) channels were extracted, and phospho-ERK signals were normalized to DRAQ5 signals for each well and percent of DMSO control values were computed. Data were then imported into Graphpad Prism to compute half-maximal inhibitory concentrations (IC50) using a 4-parameter variable slope model. Z-factor for each plate was computed from signals derived from wells treated with either DMSO or […] of Trametinib. AGS pERK ICW (Method B) IC50 (uM) values of selected compounds are depicted in Table 2 with compounds having a value 0.001 uM to 0.01 uM as ++++; >0.01 uM to 0.1 uM as +++; >0.1 uM to 1 uM as ++; 1 uM to 10 uM as + and >10 uM as NA.

T1 sequence (P01116 with tags, fused parts or gaps isoform P01116-2 G12D): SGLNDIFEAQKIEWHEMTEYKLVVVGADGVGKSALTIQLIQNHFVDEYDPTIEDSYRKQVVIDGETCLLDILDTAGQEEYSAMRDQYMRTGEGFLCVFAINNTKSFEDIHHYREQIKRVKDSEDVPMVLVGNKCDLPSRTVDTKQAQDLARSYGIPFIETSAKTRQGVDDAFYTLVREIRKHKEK

One may read the IC50 as the concentration needed to halve the response being measured. A high value points to weaker potency in that assay. Turning to `N#Cc1c(N)sc2c1C1(CC2)CN(c2nc(OC[C@@]34CCCN3C[C@H](F)C4)nc(N3CCC[C@]4(C3)NC(=O)NC4=O)c2F)C1` [Compound 7, 2-amino-1′-[6-[(5R)-2,4-dioxo-1,3,9-triazaspiro[4.5]decan-9-yl]-5-fluoro-2-[[(2R,8S)-2-fluoro-1,2,3,5,6,7-hexahydropyrrolizin-8-yl]methoxy]pyrimidin-4-yl]spiro[5,6-dihydrocyclopenta[b]thiophene-4,3′-azetidine]-3-carbonitrile], the IC50 (against KRAS G12D/RAF1 (Table 4); in assay [1]) was 100 to 1000 nM in each case.
In the case of `N#Cc1c(N2C[C@H]3CC[C@@H](C2)N3)nc(OCC2(CN3CCOCC3)CC2)nc1N1CC2(CCCCc3sc(N)c(C#N)c32)C1` [Compound 70, 2-amino-1′-[5-cyano-2-[[1-(morpholinomethyl)cyclopropyl]methoxy]-6-[(1R,5S)-3,8-diazabicyclo[3.2.1]octan-3-yl]pyrimidin-4-yl]spiro[5,6,7,8-tetrahydrocyclohepta[b]thiophene-4,3′-azetidine]-3-carbonitrile], the IC50 fell in the range of 100 to 1000 nM against KRAS G12D/RAF1 (Table 4) and 10 to 100 nM in assay [1].
In the case of `N#Cc1c(N2C[C@H]3CC[C@@H](C2)N3)nc(OCc2ccccc2)nc1N1CC2(CCc3sc(N)c(C#N)c32)C1` [Compound 76, 2-amino-1′-[2-benzyloxy-5-cyano-6-[(1R,5S)-3,8-diazabicyclo[3.2.1]octan-3-yl]pyrimidin-4-yl]spiro[5,6-dihydrocyclopenta[b]thiophene-4,3′-azetidine]-3-carbonitrile], the IC50 against KRAS G12D/RAF1 (Table 4) is 100 to 1000 nM; in assay [1], 10 to 100 nM.
Taken in the same sequence, the figures for `Cc1noc(-c2nn3c(c2Cl)CN(c2nc(OC[C@@]45CCCN4C[C@H](F)C5)nc(N4CC5(CCc6sc(N)c(C#N)c65)C4)c2C#N)CCC3)n1` [Compound 17, 2-amino-1′-[6-[3-chloro-2-(3-methyl-1,2,4-oxadiazol-5-yl)-4,6,7,8-tetrahydropyrazolo[1,5-a][1,4]diazepin-5-yl]-5-cyano-2-[[(2R,8S)-2-fluoro-1,2,3,5,6,7-hexahydropyrrolizin-8-yl]methoxy]pyrimidin-4-yl]spiro[5,6-dihydrocyclopenta[b]thiophene-4,3′-azetidine]-3-carbonitrile] were 1000 to 10000 nM and 10 to 100 nM.
The corresponding values for `N#Cc1c(N2C[C@H]3CC[C@@H](C2)N3)nc(OC[C@@H]2CCN2CC(F)(F)F)nc1N1CC2(CCc3sc(N)c(C#N)c32)C1` [Compound 92, 2-amino-1′-[5-cyano-6-[(1R,5S)-3,8-diazabicyclo[3.2.1]octan-3-yl]-2-[[(2S)-1-(2,2,2-trifluoroethyl)azetidin-2-yl]methoxy]pyrimidin-4-yl]spiro[5,6-dihydrocyclopenta[b]thiophene-4,3′-azetidine]-3-carbonitrile] are 10000 to 100000 nM and 1000 to 10000 nM.
Taken in the same sequence, the figures for `C[C@H](Oc1nc(N2C[C@H]3CC[C@@H](C2)N3)c(C#N)c(N2CC3(CCc4sc(N)c(C#N)c43)C2)n1)[C@@H]1CCCN1C` [Compound 88, 2-amino-1′-[5-cyano-6-[(1R,5S)-3,8-diazabicyclo[3.2.1]octan-3-yl]-2-[(1S)-1-[(2S)-1-methylpyrrolidin-2-yl]ethoxy]pyrimidin-4-yl]spiro[5,6-dihydrocyclopenta[b]thiophene-4,3′-azetidine]-3-carbonitrile] were 10000 to 100000 nM and 1000 to 10000 nM.
For the molecule `C=C1CN2CCCC2(COc2nc(N3CCCn4nc(C(=O)N(C)C)c(Cl)c4C3)c(C#N)c(N3CC4(CCc5sc(N)c(C#N)c54)C3)n2)C1` (stereo not shown) [Compound 93, 5-[6-(2-amino-3-cyano-spiro[5,6-dihydrocyclopenta[b]thiophene-4,3′-azetidine]-1′-yl)-5-cyano-2-[(6-methylene-2,3,5,7-tetrahydro-1H-pyrrolizin-8-yl)methoxy]pyrimidin-4-yl]-3-chloro-N,N-dimethyl-4,6,7,8-tetrahydropyrazolo[1,5-a][1,4]diazepine-2-carboxamide], the IC50 against KRAS G12D/RAF1 (Table 4) is 100 to 1000 nM; in assay [1], 1 to 10 nM.
Consider `Cn1c(-c2nn3c(c2Cl)CN(c2nc(OC[C@@]45CCCN4C[C@H](F)C5)nc(N4CC5(CCc6sc(N)c(C#N)c65)C4)c2C#N)CCC3)nc2c(F)cccc21` [Compound 32, 2-amino-1′-[6-[3-chloro-2-(4-fluoro-1-methyl-benzimidazol-2-yl)-4,6,7,8-tetrahydropyrazolo[1,5-a][1,4]diazepin-5-yl]-5-cyano-2-[[(2R,8S)-2-fluoro-1,2,3,5,6,7-hexahydropyrrolizin-8-yl]methoxy]pyrimidin-4-yl]spiro[5,6-dihydrocyclopenta[b]thiophene-4,3′-azetidine]-3-carbonitrile], for which the values for the half-inhibitory concentration (IC50) (against KRAS G12D/RAF1 (Table 4); in assay [1]) were 10000 to 100000 nM and 10 to 100 nM, respectively.
For the molecule `CN(C)CC1(COc2nc(N3CCCn4nc(C(=O)N(C)C)c(Cl)c4C3)c(C#N)c(N3CC4(CCCc5sc(N)c(C#N)c54)C3)n2)CC1(F)F` (stereo not shown) [Compound 96, 5-[6-(2-amino-3-cyano-spiro[6,7-dihydro-5H-benzothiophene-4,3′-azetidine]-1′-yl)-5-cyano-2-[[1-[(dimethylamino)methyl]-2,2-difluoro-cyclopropyl]methoxy]pyrimidin-4-yl]-3-chloro-N,N-dimethyl-4,6,7,8-tetrahydropyrazolo[1,5-a][1,4]diazepine-2-carboxamide], the IC50 at KRAS G12D/RAF1 (Table 4) was in the range of 1000 to 10000 nM; in assay [1] it was 10 to 100 nM.
Turning to `CN(C)CC1(COc2nc(N3CC4CCC(C3)N4)c(C#N)c(N3CC4(CCc5sc(N)c(C#N)c54)C3)n2)CC1(F)F` (stereo not shown) [Compound 74B, 2-amino-1′-[5-cyano-6-(3,8-diazabicyclo[3.2.1]octan-3-yl)-2-[[(1*)-1-[(dimethylamino)methyl]-2,2-difluoro-cyclopropyl]methoxy]pyrimidin-4-yl]spiro[5,6-dihydrocyclopenta[b]thiophene-4,3′-azetidine]-3-carbonitrile], the IC50 against KRAS G12D/RAF1 (Table 4, listed as 74.2) lay in the range of 10000 to 100000 nM; in assay [1] (listed as 74.2) it was 1000 to 10000 nM.
As to `C[C@@]1(O)CCCN(c2nc(OC[C@@]34CCCN3C[C@H](F)C4)nc(N3CC4(CCc5sc(N)c(C#N)c54)C3)c2C#N)C1` [Compound 27, 2-amino-1′-[5-cyano-2-[[(2R,8S)-2-fluoro-1,2,3,5,6,7-hexahydropyrrolizin-8-yl]methoxy]-6-[(3R)-3-hydroxy-3-methyl-1-piperidyl]pyrimidin-4-yl]spiro[5,6-dihydrocyclopenta[b]thiophene-4,3′-azetidine]-3-carbonitrile], the half-maximal inhibitory concentration (IC50) against KRAS G12D/RAF1 (Table 4) lay within 1000 to 10000 nM; in assay [1], 100 to 1000 nM.
Taken in the same sequence, the figures for `CN(C)C(=O)c1nn2c(c1Cl)CN(c1nc(OC[C@@]34CCCN3C[C@H](F)C4)nc(N3CC4(CCc5sc(N)c(C#N)c54)C3)c1F)CCC2` [Compound 9, 5-[6-(2-amino-3-cyano-spiro[5,6-dihydrocyclopenta[b]thiophene-4,3′-azetidine]-1′-yl)-5-fluoro-2-[[(2R,8S)-2-fluoro-1,2,3,5,6,7-hexahydropyrrolizin-8-yl]methoxy]pyrimidin-4-yl]-3-chloro-N,N-dimethyl-4,6,7,8-tetrahydropyrazolo[1,5-a][1,4]diazepine-2-carboxamide] were 1000 to 10000 nM and 10 to 100 nM.
On to `CO[C@H]1CN(CC2(COc3nc(N4C[C@H]5CC[C@@H](C4)N5)c(C#N)c(N4CC5(CCc6sc(N)c(C#N)c65)C4)n3)CC2)C[C@@H]1F` [Compound 81, 2-amino-1′-[5-cyano-6-[(1R,5S)-3,8-diazabicyclo[3.2.1]octan-3-yl]-2-[[1-[[(3S,4S)-3-fluoro-4-methoxy-pyrrolidin-1-yl]methyl]cyclopropyl]methoxy]pyrimidin-4-yl]spiro[5,6-dihydrocyclopenta[b]thiophene-4,3′-azetidine]-3-carbonitrile], for which the IC50 lay in the range of 1000 to 10000 nM against KRAS G12D/RAF1 (Table 4) and 10 to 100 nM in assay [1].
Taken in the same sequence, the figures for `CN(CCOc1nc(N2C[C@H]3CC[C@@H](C2)N3)c(C#N)c(N2CC3(CCc4sc(N)c(C#N)c43)C2)n1)C1CCC1` [Compound 48, 2-amino-1′-[5-cyano-2-[2-[cyclobutyl(methyl)amino]ethoxy]-6-[(1R,5S)-3,8-diazabicyclo[3.2.1]octan-3-yl]pyrimidin-4-yl]spiro[5,6-dihydrocyclopenta[b]thiophene-4,3′-azetidine]-3-carbonitrile] were 10000 to 100000 nM and 100 to 1000 nM.
